This passage reports DC50 and Dmax results from US20260335299A1, “SUBSTITUTED OXOISOINDOLINYL PIPERIDINE-2,6-DIONE COMPOUND AS ANTICANCER AGENT” (BRISTOL-MYERS SQUIBB COMPANY, priority 2023, published 2026).

Where two headings read alike, the source gives them in different places.

One assay addresses IKZF1 Ikaros (Homo sapiens, UniProt Q13422+Q96SW2). Nature of the assay: Jurkat Cellular Degradation Assay (Ikaros). The class given is cell-based. Set-up: endogenous in cells; host or cells: Jurkat cells. As to conditions: Jurkat cells, 72 h. The procedure: Jurkat cells were plated at 80,000 cells/well in 40 μL RPMI+10% FBS in a 384-well cell culture plate prior to using acoustic dispensing technology for adding a compound of interest. Cell cultures were incubated for 72 h at 37° C. and 5% CO2. In order to facilitate analysis, cell cultures were spun down at 200 rpm for 5 min and the supernatant was discarded. After shaking the plate to dislodge the cell pellet, cells were resuspended in 50 μL of Fixation Buffer (eBioscience FoxP3 buffer set 00-5523-00) for 60 min at room temperature. After centrifuging and discarding the supernatant, cells were permeabilized with 50 μL of Permeabilization buffer (eBioscience FoxP3 buffer set 00-5523-00) for 10 min at room temperature. Following permeabilization, cells were spun down and the supernatant was replaced with 20 μL fluorescently labelled antibodies against Helios, Ikaros and Aiolos or corresponding Isotype controls in 1× Permeabilization buffer (Ikaros-Alexa488 [Biolegend, Cat #368408, 1:50], Helios-PE [CST, Cat #29360, 1:50], Aiolos-Alexa647 [Biolegend, Cat #371106 Biolegend, 1:25]) and staining reactions were incubated for 1 h at room temperature while protected from light. Subsequently, 30 μL of 1× Permeabilization buffer was added prior to centrifuging the cells and discarding the supernatant. Stained cells were resuspended in 25 μL of flow cytometry staining buffer [PBS+0.2% bovine serum albumin (BSA)] and analyzed using an Intellicyt Ique Plus flow cytometer.
Table A-1 lists the maximum observed degradation of the IKZF1 protein, IKZF2 protein, and IKZF3 protein as measured in the Jurkat Cellular Degradation assay. The results in Table A-I were rounded to two digits. In the Jurkat Cellular Degradation assay, a value of 100% indicated no detectable protein remaining or complete degradation of the protein; and a value of 0% indicated no detectable degradation of the protein by the test compound.

In another assay the target is IKZF2 Helios (Homo sapiens, UniProt Q96SW2+Q9UKS7). Nature of the assay: Human Regulatory T Cell Reprogramming Assay (Helios). It counts as cell-based. More on the design: Human CD4+ T cells were isolated from fresh healthy leukopaks; endogenous in cells; host or cells: FACS-sorted primary human regulatory T cells from healthy leukopaks. As to the method:
Human CD4+ T cells were isolated from fresh healthy leukopaks (Stemcell Technologies) using the RosetteSep Human CD4+ T cell enrichment cocktail (Stemcell Technologies) and Ficoll density gradient centrifugation. Leukopaks were diluted with an equal volume of phosphate-buffered saline (PBS [Gibco]) supplemented with 2% fetal bovine serum (FBS, VWR Lifescience) and incubated with RosetteSep Human CD4^+ T cell enrichment cocktail for 20 minutes before layering on Ficoll-Paque Plus solution (GE Health Care). The cell-rich interface layer was harvested and washed twice with PBS supplemented with 2% FBS. Regulatory T cells were then isolated manually using the EasySep Human CD4^+CD1271WCD25^+ Regulatory T cell isolation kit (Stemcell Technologies) according to the manufacturer's instructions. Cells were rested overnight in Roswell Park Memorial Institute (RPMI) 1640 media (Gibco) supplemented with 10% FBS, Pen/Strep (Gibco), MEM-NEAA (Gibco), and sodium pyruvate (Gibco) in a humidified incubator (37° C., 5% CO2). Cells were then stained for CD4 (clone: RPA-T4, Biolegend), CD25 (clone: 2A3, BD Biosciences), and CD127 (clone: hIL-7R-M21, BD Biosciences). CD4+CD12710WCD25+ cells were sorted on a BD FACS Aria Fusion sorter to a purity of 95% or greater. Sorted cells were immediately used or cryopreserved for downstream assays.
Fresh or cryopreserved FACS-sorted CD4+CD127^lowCD25^+ Treg cells were cultured at 25,000-50,000 cells/well of 96-well round bottom plates in RPMI 1640 media (Gibco) supplemented with 10% FBS, Pen/Strep (Gibco), MEM-NEAA (Gibco), and sodium pyruvate (Gibco). Cells were stimulated with Treg Xpander beads (Thermo Fisher) at cells-to-beads ratio of 1:4 in the presence of 500 U/mL recombinant human IL-2 (Proleukin). Compounds were added at titrated doses and cells were incubated at 37° C., 5% CO2 for 12-13 days. Recombinant human IL-2 and compound were replenished every 2-3 days during the entire culture duration. On day 12 or 13, cells were restimulated with phorbol 12-myristate 13-acetate (PMA) and ionomycin in the presence of the protein transport inhibitors brefeldin A and monensin (eBioscience Cell Stimulation Cocktail plus protein transport inhibitors, 500×, Catalog number 00-4975-93) before proceeding with flow cytometry staining and analysis.
For flow cytometry staining, cells were washed twice with flow cytometry staining buffer (Thermo Fisher) and incubated in Human Tru-stain Fc block (Biolegend) for 10 minutes before adding eFluor780 viability dye (Thermo Fisher) and surface marker antibody cocktail for 30 minutes at 4° C. […] Data were analyzed using FlowJo version 10 and GraphPad Prism Software.
Table C-1 lists the maximum observed degradation of the IKZF2 protein and IKZF4 protein as measured in the Human Regulatory T Cell Reprogramming assay. […]

Sequence of IKZF2 Helios (Q9UKS7 whole entry): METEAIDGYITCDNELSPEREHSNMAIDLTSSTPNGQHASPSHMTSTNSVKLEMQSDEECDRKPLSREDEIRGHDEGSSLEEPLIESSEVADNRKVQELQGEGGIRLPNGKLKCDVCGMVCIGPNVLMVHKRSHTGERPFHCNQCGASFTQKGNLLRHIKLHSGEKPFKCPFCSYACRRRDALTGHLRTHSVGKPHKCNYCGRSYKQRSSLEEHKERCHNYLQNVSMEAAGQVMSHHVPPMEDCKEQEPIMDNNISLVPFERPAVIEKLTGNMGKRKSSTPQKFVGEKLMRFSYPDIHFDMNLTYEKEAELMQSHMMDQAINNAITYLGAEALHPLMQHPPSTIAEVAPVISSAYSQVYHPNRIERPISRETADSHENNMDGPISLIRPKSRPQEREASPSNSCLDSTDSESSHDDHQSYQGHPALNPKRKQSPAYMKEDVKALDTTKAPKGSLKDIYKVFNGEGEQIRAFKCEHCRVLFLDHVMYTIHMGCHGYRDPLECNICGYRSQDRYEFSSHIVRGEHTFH
Sequence of IKZF2 Helios (Q96SW2 whole entry): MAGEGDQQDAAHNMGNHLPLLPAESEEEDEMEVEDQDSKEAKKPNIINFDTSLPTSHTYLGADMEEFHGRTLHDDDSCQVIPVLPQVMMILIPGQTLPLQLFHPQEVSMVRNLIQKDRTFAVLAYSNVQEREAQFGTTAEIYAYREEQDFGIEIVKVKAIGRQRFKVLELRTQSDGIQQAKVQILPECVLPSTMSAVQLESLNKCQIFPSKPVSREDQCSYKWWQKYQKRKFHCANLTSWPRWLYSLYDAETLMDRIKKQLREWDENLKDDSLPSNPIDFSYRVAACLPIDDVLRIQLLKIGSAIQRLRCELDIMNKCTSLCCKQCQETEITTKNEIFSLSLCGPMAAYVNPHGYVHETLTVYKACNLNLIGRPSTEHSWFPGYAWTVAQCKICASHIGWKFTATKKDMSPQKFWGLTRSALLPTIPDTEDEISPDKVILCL
Sequence of IKZF2 Helios (Q16531 whole entry partner): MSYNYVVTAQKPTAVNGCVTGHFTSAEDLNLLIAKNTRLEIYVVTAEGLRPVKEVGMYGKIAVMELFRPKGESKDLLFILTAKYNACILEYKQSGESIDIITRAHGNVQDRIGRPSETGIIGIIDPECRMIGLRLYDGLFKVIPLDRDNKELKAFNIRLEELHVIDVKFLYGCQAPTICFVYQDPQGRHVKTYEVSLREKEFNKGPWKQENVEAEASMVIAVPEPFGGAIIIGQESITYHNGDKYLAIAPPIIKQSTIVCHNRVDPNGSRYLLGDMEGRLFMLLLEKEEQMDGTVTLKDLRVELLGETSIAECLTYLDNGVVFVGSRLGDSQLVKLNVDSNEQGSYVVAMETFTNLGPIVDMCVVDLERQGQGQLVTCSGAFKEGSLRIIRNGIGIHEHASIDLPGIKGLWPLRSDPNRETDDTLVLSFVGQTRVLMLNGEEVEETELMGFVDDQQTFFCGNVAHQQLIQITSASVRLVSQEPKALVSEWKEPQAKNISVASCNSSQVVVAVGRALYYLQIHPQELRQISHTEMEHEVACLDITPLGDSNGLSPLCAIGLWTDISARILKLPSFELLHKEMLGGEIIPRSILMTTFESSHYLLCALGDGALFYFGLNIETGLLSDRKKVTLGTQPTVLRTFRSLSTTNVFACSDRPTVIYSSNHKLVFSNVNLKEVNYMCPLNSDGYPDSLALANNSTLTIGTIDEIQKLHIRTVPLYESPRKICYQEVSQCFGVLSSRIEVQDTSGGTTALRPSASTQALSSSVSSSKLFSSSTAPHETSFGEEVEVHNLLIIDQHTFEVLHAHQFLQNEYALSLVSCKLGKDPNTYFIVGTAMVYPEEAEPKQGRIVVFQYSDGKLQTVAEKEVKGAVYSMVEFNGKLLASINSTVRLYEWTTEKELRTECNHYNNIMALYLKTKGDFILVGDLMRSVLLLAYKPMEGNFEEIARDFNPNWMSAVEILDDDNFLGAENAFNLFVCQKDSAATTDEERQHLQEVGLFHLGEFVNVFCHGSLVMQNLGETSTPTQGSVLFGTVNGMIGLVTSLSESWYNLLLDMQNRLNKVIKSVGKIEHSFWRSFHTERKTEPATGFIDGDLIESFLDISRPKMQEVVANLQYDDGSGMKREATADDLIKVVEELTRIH
Sequence of IKZF1 Ikaros (Q13422 whole entry): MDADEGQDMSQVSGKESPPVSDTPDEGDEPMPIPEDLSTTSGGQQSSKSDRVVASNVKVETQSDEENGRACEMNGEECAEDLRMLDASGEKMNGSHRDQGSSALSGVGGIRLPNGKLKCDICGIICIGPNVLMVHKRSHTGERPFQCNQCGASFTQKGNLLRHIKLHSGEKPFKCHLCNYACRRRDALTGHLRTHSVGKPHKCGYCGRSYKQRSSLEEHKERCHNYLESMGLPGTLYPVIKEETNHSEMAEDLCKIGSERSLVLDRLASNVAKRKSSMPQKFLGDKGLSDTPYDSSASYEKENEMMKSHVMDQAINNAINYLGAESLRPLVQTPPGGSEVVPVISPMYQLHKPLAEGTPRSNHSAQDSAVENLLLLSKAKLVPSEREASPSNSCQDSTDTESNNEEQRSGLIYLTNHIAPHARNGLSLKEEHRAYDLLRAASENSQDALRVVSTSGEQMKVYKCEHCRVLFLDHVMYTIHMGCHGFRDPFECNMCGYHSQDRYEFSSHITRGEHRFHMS
Sequence of IKZF1 Ikaros (Q96SW2 whole entry): as the sequence (Q96SW2 whole entry) above
Sequence of IKZF1 Ikaros (Q16531 whole entry partner): as the sequence (Q16531 whole entry partner) above

As for `Nc1nc(-c2ccc3c(c2F)CN(C2CCC(=O)NC2=O)C3=O)ccc1CN1CC(C2CCC(F)(F)CC2)C1` (stereo not drawn) [Example 1, 3-(5-(6-Amino-5-((3-(4,4-difluorocyclohexyl)azetidin-1-yl)methyl)pyridin-2-yl)-4-fluoro-1-oxoisoindolin-2-yl) piperidine-2,6-dione], the DC50 on IKZF1 Ikaros (concentration reducing protein level by 50% compared to DMSO alone) is 90.9 nM; on IKZF2 Helios (human Treg cells, stimulated, 12-13 days, concentration reducing protein level by 50% compared to DMSO alone) it was 36 to 172 nM. Moreover, the Dmax on IKZF1 Ikaros (human, read-out: IKZF1 Ikaros max % deg. observed) was 69%; on IKZF2 Helios (Regulatory T cell, human, text summary of Table C-1, read-out: decreased the level of the IKZF2 (Helios) protein) it was at least 81%; at IKZF2 Helios (Regulatory T cell, human Treg cells, stimulated, 12-13 days, read-out: IKZF2 Helios Maximum Observed Degradation), 81 to 86%; on IKZF2 Helios (summary table, Human T Regulatory Cell Reprogramming Assay (Table C-1), read-out: IKZF2 Helios max % deg. observed (Table E)), 81 to 86%.
